Measurements taken from ChEMBL document CHEMBL1201862, “PubChem BioAssay data set” (2004).
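Method: 48-hour compound exposure of cells in 96-well plates, five concentrations, linear interpolation of endpoints. At the GI50, growth is halved.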 Active and inactive are the calls of the source. No stated cut-off is given here; in the data, active = GI50 up to about 1.1 µM and inactive = higher.

Columns and labels:
Assay in all cases: NCI anticancer screen, dose series, 48 h
CCRF-CEM = system: CCRF-CEM
DMS-114 = system: DMS-114
DMS-273 = system: DMS-273
HCT-116 = system: HCT-116
HOP-18 = system: HOP-18
KM-20L2 = system: KM-20L2
MCF7 = system: MCF7
Malme-3M = system: Malme-3M
OVCAR-4 = system: OVCAR-4
SF-539 = system: SF-539
SK-MEL-28 = system: SK-MEL-28
SNB-19 = system: SNB-19
UACC-62 = system: UACC-62
XF498 = system: XF498
LXFL 529 = system: LXFL 529
BT-549 = system: BT-549
PC-3 = system: PC-3
T47D = system: T47D
MDA-MB-231 = system: MDA-MB-231
MDA-MB-435 = system: MDA-MB-435

Row | Compound | GI50 (CCRF-CEM) | GI50 (DMS-114) | GI50 (DMS-273) | GI50 (HCT-116) | GI50 (HOP-18) | GI50 (KM-20L2) | GI50 (MCF7) | GI50 (Malme-3M) | GI50 (OVCAR-4) | GI50 (SF-539) | GI50 (SK-MEL-28) | GI50 (SNB-19) | GI50 (UACC-62) | GI50 (XF498) | GI50 (LXFL 529) | GI50 (BT-549) | GI50 (PC-3) | GI50 (T47D) | GI50 (MDA-MB-231) | GI50 (MDA-MB-435)
1 | CN(C)C(=O)Oc1c(Br)cc(Br)cc1C(=O)OCc1ccccc1 | 19.3 µM (inactive) | 19.1 µM (inactive) | 17.3 µM (inactive) | 14.5 µM (inactive) | 33.2 µM (inactive) | 22.8 µM (inactive) | 26.4 µM (inactive) | 24.9 µM (inactive) | 33 µM (inactive) | 26.6 µM (inactive) | 40.2 µM (inactive) | 45.5 µM (inactive) | 15.7 µM (inactive) | 19.3 µM (inactive) |  |  |  |  |  | 
2 | COc1ccc(/N=C\c2ccc(N(CCC#N)S(=O)(=O)c3ccccc3)cc2C)cc1 | 30.2 µM (inactive) | 13.2 µM (inactive) |  | 87.1 µM (inactive) | > 100 µM (inactive) | 12 µM (inactive) |  | 25.6 µM (inactive) | 74.6 µM (inactive) | 44.2 µM (inactive) | 39.9 µM (inactive) | > 100 µM (inactive) | 8.99 µM (inactive) | > 100 µM (inactive) | 8.99 µM (inactive) |  |  |  |  | 
3 | O=C(CCCn1cnc([N+](=O)[O-])n1)NCCn1ccnc1[N+](=O)[O-] | > 100 µM (inactive) |  |  |  |  |  | > 100 µM (inactive) |  | > 100 µM (inactive) |  | > 100 µM (inactive) |  | > 100 µM (inactive) |  |  | > 100 µM (inactive) | > 100 µM (inactive) | > 100 µM (inactive) |  | 
4 | O=C1CCCC/C1=C1/SC(=N/c2ccccc2)/C(=N\c2ccccc2)N1c1ccccc1 | > 100 µM (inactive) |  |  | > 100 µM (inactive) |  |  | 68.7 µM (inactive) | > 100 µM (inactive) |  |  | > 100 µM (inactive) | > 100 µM (inactive) | 38.1 µM (inactive) |  |  | > 100 µM (inactive) | > 10 µM (inactive) | > 100 µM (inactive) | > 100 µM (inactive) | > 10 µM (inactive)
5 | COc1ccc2c(O)c3[n+](cc2c1OC)CCc1cc2c(cc1-3)OCO2 | 52.8 µM (inactive) |  |  | 41.8 µM (inactive) |  |  | 56.2 µM (inactive) |  | > 100 µM (inactive) | > 100 µM (inactive) |  | > 100 µM (inactive) | 37.4 µM (inactive) |  |  | 72.4 µM (inactive) | > 100 µM (inactive) | 88.3 µM (inactive) | > 100 µM (inactive) | 24.8 µM (inactive)
6 | O=C(NNC(=S)Nc1ccccc1)c1nsc2ccccc12 | 0.36 µM (active) | 24.9 µM (inactive) | 17.3 µM (inactive) | 25.2 µM (inactive) | 10.3 µM (inactive) | 30.8 µM (inactive) |  |  | 96.8 µM (inactive) | 31.3 µM (inactive) | 34.6 µM (inactive) | 34.9 µM (inactive) | 26.2 µM (inactive) |  | 28.1 µM (inactive) |  |  |  |  | 
7 | CS(C)(=O)=Nn1c(=O)n2n(c1=O)C1c3ccccc3C2c2ccccc21 | > 100 µM (inactive) |  |  |  |  |  | > 100 µM (inactive) | > 100 µM (inactive) |  | > 100 µM (inactive) | > 100 µM (inactive) | > 100 µM (inactive) | > 100 µM (inactive) |  |  |  | > 100 µM (inactive) | > 100 µM (inactive) | > 100 µM (inactive) | > 100 µM (inactive)
8 | CCNC(=S)NNC(=O)c1nsc2ccccc12 | 31 µM (inactive) | 95.5 µM (inactive) | 97.5 µM (inactive) | 96.8 µM (inactive) | 23.1 µM (inactive) | 64.9 µM (inactive) |  |  | > 100 µM (inactive) | > 100 µM (inactive) | > 100 µM (inactive) | > 100 µM (inactive) | 63.8 µM (inactive) |  | 53.3 µM (inactive) |  |  |  |  | 
9 | O=C(Nc1ccc([N+](=O)[O-])cc1)C(=O)C(C(=O)c1ccccc1F)C1OC(=O)c2ccccc21 (configuration not stated) | 16.6 µM (inactive) | 29 µM (inactive) | 23.8 µM (inactive) | 31.6 µM (inactive) |  | 33.9 µM (inactive) |  |  | 42.8 µM (inactive) | 21.5 µM (inactive) | 46.9 µM (inactive) | 26.4 µM (inactive) | 25.2 µM (inactive) | 70.3 µM (inactive) | 33.7 µM (inactive) |  |  |  |  | 
10 | COc1cc([C@@H]2c3cc4c(cc3[C@H](O)[C@H]3COC(=O)[C@H]23)OCO4)cc(OC)c1OC [PODOFILOX] | < 0.005 µM (active) | 0.01 µM (active) | 0.01 µM (active) | < 0.005 µM (active) | > 100 µM (inactive) |  | < 0.005 µM (active) | 3.01 µM (inactive) |  | < 0.005 µM (active) | < 0.005 µM (active) | < 0.005 µM (active) | < 0.005 µM (active) | 0.0354 µM (active) | 0.01 µM (active) | 0.0232 µM (active) | < 0.005 µM (active) | 0.5 µM (active) | < 0.005 µM (active) | < 0.005 µM (active)
11 | CCN(CC)/[N+]([O-])=N/O | > 100 µM (inactive) |  | > 100 µM (inactive) | > 100 µM (inactive) |  | > 100 µM (inactive) |  |  |  | > 100 µM (inactive) | > 100 µM (inactive) | > 100 µM (inactive) | > 100 µM (inactive) | 18.9 µM (inactive) | > 100 µM (inactive) |  |  |  |  | 
12 | COC(=O)CN(C)P(=O)(N1CC1)N1CC1 | 36.9 µM (inactive) | 55.1 µM (inactive) | > 100 µM (inactive) |  |  | > 100 µM (inactive) |  | > 100 µM (inactive) | > 100 µM (inactive) | > 100 µM (inactive) | > 100 µM (inactive) | > 100 µM (inactive) | 90.2 µM (inactive) |  | > 100 µM (inactive) |  |  |  |  | 
13 | C=CCOC1OC(CS(=O)(=O)O)C(O)C(O)C1O (configuration not stated) | > 10 µM (inactive) |  |  | > 100 µM (inactive) |  |  | > 100 µM (inactive) | > 100 µM (inactive) | > 100 µM (inactive) |  | > 100 µM (inactive) | > 100 µM (inactive) | > 100 µM (inactive) |  |  | > 100 µM (inactive) | > 100 µM (inactive) | > 100 µM (inactive) | > 100 µM (inactive) | > 100 µM (inactive)
14 | CN(C)CCOc1cc2c(c3ccccc13)-c1ccccc1C2O (configuration not stated) | 14.1 µM (inactive) | 11.7 µM (inactive) | 15 µM (inactive) | 13.2 µM (inactive) | 14.8 µM (inactive) | 15.6 µM (inactive) | 12.8 µM (inactive) | 18.2 µM (inactive) | 17.9 µM (inactive) | 14.3 µM (inactive) | 16 µM (inactive) | 8.28 µM (inactive) | 17.2 µM (inactive) | 12.9 µM (inactive) |  |  |  |  |  | 
15 | C1CSCCSCCSCCSC1 |  |  |  | > 100 µM (inactive) |  |  | > 100 µM (inactive) |  | > 100 µM (inactive) | > 100 µM (inactive) | > 100 µM (inactive) | > 100 µM (inactive) | > 100 µM (inactive) |  |  | > 100 µM (inactive) | > 100 µM (inactive) | > 100 µM (inactive) | > 100 µM (inactive) | > 100 µM (inactive)
16 | Cc1ccc(S(=O)(=O)NCCSS(=O)(=O)c2ccc(C)cc2)cc1 | 24.3 µM (inactive) |  |  | 15.1 µM (inactive) |  |  | 22.3 µM (inactive) |  | > 100 µM (inactive) |  | 31.7 µM (inactive) | 72.9 µM (inactive) |  |  |  |  | 27.6 µM (inactive) | 27.7 µM (inactive) | 37.7 µM (inactive) | 22.3 µM (inactive)
17 | Nc1nc2ccc3ccccc3c2[nH]1 | > 10 µM (inactive) |  |  | > 10 µM (inactive) |  |  | > 10 µM (inactive) | > 10 µM (inactive) | > 10 µM (inactive) | > 10 µM (inactive) | > 10 µM (inactive) | > 10 µM (inactive) | > 10 µM (inactive) |  |  |  | > 10 µM (inactive) | > 10 µM (inactive) | > 10 µM (inactive) | > 10 µM (inactive)
